Source: US20080132505A1 (Glaxo Group Limited, priority 2004, published 2008)

Biological target: human cannabinoid CB2 receptor (Homo sapiens, UniProt P34972)
Assay: Cannabinoid CB2 receptor agonist activity (yeast reporter assay, FDGlu fluorescence)
Assay type: cell-based
Details: for EC50: EC50 value at the cloned human cannabinoid CB2 receptor; for Emax: read-out: efficacy value (Emax relative to HU210) at the cloned human cannabinoid CB2 receptor
Experimental: Determination of Cannabinoid CB2 Receptor Agonist Activity
The cannabinoid CB2 receptor agonist activity of the compounds of formula (I)-(IV) was determined in accordance with the following experimental method.
Yeast (Saccharomyces cerevisiae) cells expressing the human cannabinoid CB2 receptor were generated by integration of an expression cassette into the ura3 chromosomal locus of yeast strain MMY23. This cassette consisted of DNA sequence encoding the human CB2 receptor flanked by the yeast GPD promoter to the 5′ end of CB2 and a yeast transcriptional terminator sequence to the 3′ end of CB2. MMY23 expresses a yeast/mammalian chimeric G-protein alpha subunit in which the C-terminal 5 amino acids of Gpa1 are replaced with the C-terminal 5 amino acids of human Gαi3 (as described in Brown et al. (2000), Yeast 16:11-22). Cells were grown at 30° C. in liquid Synthetic Complete (SC) yeast media (Guthrie and Fink (1991), Methods in Enzymology, Vol. 194) lacking uracil, tryptophan, adenine and leucine to late logarithmic phase (approximately 6 OD600/ml).
Agonists were prepared as 10 mM stocks in DMSO. […] Agonist solutions in DMSO (1% final assay volume) were transferred into black, clear bottom, microtitre plates from NUNC (96- or 384-well). Cells were suspended at a density of 0.2 OD600/ml in SC media lacking histidine, uracil, tryptophan, adenine and leucine and supplemented with 10 mM 3-aminotriazole, 0.1M sodium phosphate pH 7.0, and […] fluorescein di-β-D-glucopyranoside (FDGlu). This mixture (50 ul per well for 384-well plates, 200 ul per well for 96-well plates) was added to agonist in the assay plates (Multidrop 384, Labsystems). After incubation at 30° C. for 24 hours, fluorescence resulting from degradation of FDGlu to fluorescein due to exoglucanase, an endogenous yeast enzyme produced during agonist-stimulated cell growth, was determined using a Spectrofluor microtitre plate reader (Tecan; excitation wavelength: 485 nm; emission wavelength: 535 nm). Fluorescence was plotted against compound concentration and iteratively curve fitted using a four parameter fit to generate a concentration effect value. Efficacy (Emax) was calculated from the equation
where Max[compound X] and Min[compound X] are the fitted maximum and minimum respectively from the concentration effect curve for compound X, and Max[HU210] and Min[HU210] are the fitted maximum and minimum respectively from the concentration effect curve for (6aR,10aR)-3-(1,1′-Dimethylheptyl)-6a,7,10,10a-tetrahydro-1-hydroxy-6,6-dimethyl-6H-dibenzo[b,d]pyran-9-methanol (HU210; available from Tocris). Equieffective molar ratio (EMR) values were calculated from the equation
Where EC50 [compound X] is the EC50 of compound X and EC50 [HU210] is the EC50 of HU210.

human cannabinoid CB2 receptor, sequence (P34972 whole entry): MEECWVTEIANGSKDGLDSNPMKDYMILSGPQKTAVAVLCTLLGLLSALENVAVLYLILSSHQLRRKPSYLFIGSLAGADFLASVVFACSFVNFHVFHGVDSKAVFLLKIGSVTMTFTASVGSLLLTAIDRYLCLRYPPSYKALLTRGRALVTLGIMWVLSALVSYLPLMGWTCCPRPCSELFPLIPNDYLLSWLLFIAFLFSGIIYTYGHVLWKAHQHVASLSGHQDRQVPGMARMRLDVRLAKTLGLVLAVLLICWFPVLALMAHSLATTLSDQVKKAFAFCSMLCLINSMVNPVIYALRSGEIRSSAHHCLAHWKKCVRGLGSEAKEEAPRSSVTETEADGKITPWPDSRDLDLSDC

Compound	EC50 [nM]	Emax [%]	activity in the CB2 assay described herein
O=C(NCc1ccnc(F)c1)c1cnc(Nc2c(Cl)cccc2Cl)nc1C(F)(F)F [Example 358, 2-(2,6-Dichloro-phenylamino)-4-trifluoromethyl-pyrimidine-5-carboxylic acid (2-fluoro-pyridin-4-ylmethyl)-amide]	20 to 300		
COc1cc(Nc2ncc(C(=O)NCC3CCCCC3)c(C(F)(F)F)n2)ccc1Cl [Example 245, 2-(4-Chloro-3-methoxyphenylamino)-4-trifluoromethyl-pyrimidine-5-carboxylic acid cyclohexylmethyl-amide]	20 to 300	> 50	
O=C(NCc1ccccc1)c1cnc(Nc2cc(Cl)cc(Cl)c2)nc1C(F)(F)F [Example 276, 2-(3,5-Dichlorophenylamino)-4-trifluoromethylpyrimidine-5-carboxylic acid benzyl-amide]	20 to 300		
O=C(NCC1CCOCC1)c1ccc(Nc2cccc(Cl)c2)nc1C(F)(F)F [Example 662, 6-(3-Chloro-phenylamino)-N-(tetrahydro-pyran-4-ylmethyl)-2-trifluoromethyl-nicotinamide]		> 50	
CCN(Cc1ccccc1)C(=O)c1cnc(Nc2cccc(Cl)c2)nc1C(F)(F)F [Example 299, 2-(3-Chloro-phenylamino)-4-trifluoromethyl-pyrimidine-5-carboxylic acid N-benzyl-N-ethyl-amide]	300 to 1000	> 50	
O=C(NC1CCCC1)c1cnc(Nc2cccc(Br)c2)nc1C(F)(F)F [Example 207, 2-(3-Bromophenylamino)-4-trifluoromethyl-pyrimidine-5-carboxylic acid cyclopentylamide]	20 to 300	> 50	
CN(CC1CCC1)C(=O)c1cnc(Nc2cccc(Cl)c2)nc1C(F)(F)F [Example 188, 2-(3-Chlorophenylamino)-4-trifluoromethyl-pyrimidine-5-carboxylic acid cyclobutylmethyl-methyl-amide]	20 to 300	> 50	
O=C(NCC1CCCCC1)c1cnc(Nc2cccc(C(F)(F)F)c2F)nc1C(F)(F)F [Example 243, 2-(2-Fluoro-3-trifluoromethyl-phenylamino)-4-trifluoromethyl-pyrimidine-5-carboxylic acid cyclohexylmethyl-amide]	20 to 300	> 50	
O=C(NCC1CCCCC1)c1cnc(Nc2cccc(Br)c2)nc1C(F)(F)F [Example 20, 2-(3-Bromophenylamino)-4-trifluoromethylpyrimidine-5-carboxylic acid cyclohexylmethyl-amide]	20 to 300	> 50	
N#Cc1ccc(CNC(=O)c2cnc(Nc3cccc(F)c3)nc2C(F)(F)F)cc1 [Example 306, 2-(3-Fluoro-phenylamino)-4-trifluoromethyl-pyrimidine-5-carboxylic acid N-(4-cyano-benzyl)amide]	300 to 1000	> 50	
O=C(NCc1ccc(F)cc1)c1cnc(Nc2cccc(F)c2)nc1C(F)(F)F [Example 288, 2-(3-Fluorophenylamino)-4-trifluoromethylpyrimidine-5-carboxylic acid 4-fluorobenzyl-amide]	20 to 300		
O=C(NCC1CC1)c1cnc(Nc2cccc(Cl)c2)nc1C(F)(F)F [Example 84, 2-(3-Chloro-phenylamino)-4-trifluoromethyl-pyrimidine-5-carboxylic acid cyclopropylmethyl-amide]	300 to 1000	> 50	
O=C(NC1CCCC1)c1cnc(Nc2ccc(Cl)cc2Cl)nc1C(F)(F)F [Example 208, 2-(2,4-Dichlorophenylamino)-4-trifluoromethyl-pyrimidine-5-carboxylic acid cyclopentylamide]	20 to 300	> 50	
O=C(NCc1ccnc(F)c1)c1cnc(Nc2cc(Cl)ccc2Cl)nc1C(F)(F)F [Example 355, 2-(2,5-Dichloro-phenylamino)-4-trifluoromethyl-pyrimidine-5-carboxylic acid (2-fluoro-pyridin-4-ylmethyl)-amide]	20 to 300		
O=C(NCC1CCC1)c1cnc(Nc2ccc(OC(F)(F)F)c(Cl)c2)nc1C(F)(F)F [Example 193, 2-(3-Chloro-4-trifluoromethoxyphenylamino)-4-trifluoromethyl-pyrimidine-5-carboxylic acid cyclobutylmethyl-amide]	20 to 300	> 50	
N#Cc1cccc(Nc2ncc(C(=O)NCC3CCCC3)c(C(F)(F)F)n2)c1 [Example 173, 2-(3-Cyanophenylamino)-4-trifluoromethyl-pyrimidine-5-carboxylic acid cyclopentylmethyl-amide]	20 to 300	> 50	
O=C(NC1CCC1)c1cnc(Nc2cccc(F)c2)nc1C(F)(F)F [Example 29, 2-(3-Fluoro-phenylamino)-4-trifluoromethyl-pyrimidine-5-carboxylic acid cyclobutylamide]	300 to 1000	> 50	
CS(=O)(=O)N1CCN(C(=O)c2cnc(Nc3cccc(Cl)c3)nc2C(F)(F)F)CC1 [Example 79, 1-[2-(3-chlorophenylamino)-4-trifluoromethyl-pyrimidin-5-yl]-1-(4-methanesulfonyl-piperazin-1-yl)-methanone]	300 to 1000	> 50	
N#Cc1cccc(Nc2ncc(C(=O)NCc3ccccc3)c(C(F)(F)F)n2)c1 [Example 362, 2-(3-Cyano-phenylamino)-4-trifluoromethyl-pyrimidine-5-carboxylic acid benzylamide]	20 to 300	> 50	
CC(C)c1cc(Nc2ccc(Br)c(C(F)(F)F)c2)ncc1C(=O)NCC1CCOCC1 [Example 752, 6-(4-Bromo-3-trifluoromethyl-phenylamino)-4-isopropyl-N-(tetrahydropyran-4-ylmethyl)-nicotinamide]	300 to 1000	> 50	
O=C(NCC1CCOCC1)c1cnc(Nc2ccc(Br)cc2F)nc1C(F)(F)F [Example 232, 2-(2-Fluoro-4-bromo-phenylamino)-4-trifluoromethyl-pyrimidine-5-carboxylic acid (tetrahydro-pyran-4-ylmethyl)-amide]	20 to 300	> 50	
O=C(NCc1ccncc1)c1ccc(Nc2cccc(Cl)c2)nc1C(F)(F)F [Example 457, 6-(3-Chloro-phenylamino)-N-(pyridin-4-ylmethyl)-2-trifluoromethyl-nicotinamide]		> 50	
N#Cc1ccc(Nc2ncc(C(=O)NCc3ccccc3)c(C(F)(F)F)n2)cc1 [Example 292, 2-(4-Cyano-phenylamino)-4-trifluoromethyl-pyrimidine-5-carboxylic acid benzylamide]	20 to 300	> 50	
O=C(NCC1CCOCC1)c1cnc(Nc2c(Cl)cccc2Cl)nc1C(F)(F)F [Example 55, 2-(2,6-Dichlorophenylamino)-4-trifluoromethyl-pyrimidine-5-carboxylic acid (tetrahydro-pyran-4-ylmethyl)-amide]	20 to 300	> 50	
COc1ccccc1CNC(=O)c1cnc(Nc2cccc(Cl)c2)nc1C(F)(F)F [2-(3-Chloro-phenylamino)-4-trifluoromethyl-pyrimidine-5-carboxylic acid 2-methoxy-benzylamide]			inactive
O=C(NCC1CCC1)c1cnc(Nc2cccc(Cl)c2Cl)nc1C(F)(F)F [Example 200, 2-(2,3-Dichlorophenylamino)-4-trifluoromethyl-pyrimidine-5-carboxylic acid cyclobutylmethyl-amide]	20 to 300	> 50	
COc1cc(Nc2ncc(C(=O)NCC3CCOCC3)c(C(F)(F)F)n2)ccc1Cl [Example 186, 2-(4-Chloro-3-methoxyphenylamino)-4-trifluoromethyl-pyrimidine-5-carboxylic acid (tetrahydropyran-4-ylmethyl)-amide]	20 to 300	> 50	
COc1cccc(Nc2ncc(C(=O)NCC3CCC3)c(C(F)(F)F)n2)c1 [Example 205, 2-(3-Methoxyphenylamino)-4-trifluoromethyl-pyrimidine-5-carboxylic acid cyclobutylmethyl-amide]	20 to 300	> 50	
O=C(NC1CCCC1)c1cnc(Nc2cccc(Cl)c2)nc1C(F)(F)F [Example 14, 2-(3-Chlorophenylamino)-4-trifluoromethylpyrimidine-5-carboxylic acid cyclopentylamide]	20 to 300	> 50	
